Laboratory results published in patent US7612107B2, “Treatment and inhibition of disease conditions using flexible heteroarotinoids” (The Board of Regents of the University of Oklahoma, priority 2005, dated 2009).
Like-named read-outs stand apart in the source and are kept apart here.

What was measured:
[1] = system: organotypic cultures of human ovarian cancer cell lines and primary cultures; experiment: Ovarian carcinoma organotypic cultures (TUNEL, histology); format: cell-based; conditions: 1 μM retinoid in media
Experimental: FIG. 17. Retinoid effects on ovarian carcinoma organotypic cultures. Organotypic cultures of OVCAR-3 (A, B, E, F, I and J), Caov-3 (C and G), SK-OV-3 (D and H), and O2 (K and L) were grown in the absence (−, top row and K) or presence (+, middle row and I, J and L) of retinoid HetA4 at a concentration of 1 μM in the media. All sections were stained with H&E except for […], which was stained with PAS to detect glycoproteins and glandular differentiation, and J, which was stained with the TUNEL assay to detect apoptosis. All magnifications are 40×.
To test our hypotheses, we evaluated the effects of clinically achievable concentrations of 4-HPR and Flex-Hets on growth, differentiation and apoptosis in ovarian tissue. A series of compounds with a variety of receptor activation profiles were evaluated. In order to evaluate therapeutic effects, we developed an organotypic culture model of ovarian tumors by growing established cell lines and primary cultures inside collagen gels. Monolayer cultures of cells are not accurate representations of in vivo tissue because they lack the types of interactions that cells have with other cells and with the extracellular matrix in vivo. These interactions are known to influence gene expression and thus the constitution and behavior of cells. In our organotypic model, the growth of tumor cells inside the collagen allows a representation of tumors that have invaded stromal tissue. In the presence of fibroblasts, established cell lines and primary cultures of ovarian cancer formed colonies inside the collagen, while normal or benign ovarian epithelial cells remained as single cells inside the collagen. Human ovarian cancer cell lines (OVCAR-3, Caov-3, SK-OV-3, A2780, UCI 101) and primary human cultures (borderline ovarian tumor (O1), serous papillary tumor (O2), benign ovarian cyst (O3)) were cultured inside and on top of a collagen gel seeded with 3T3 fibroblasts for one week. After further incubation in the presence or absence of 1 μM retinoid (media concentration) for 3, 7 or 14 days, cultures were fixed and sectioned for immunohistochemical analysis.
The TUNEL assay was used to evaluate apoptosis in fixed, paraffin embedded, cut sections of the treated and control cultures (FIG. 17). […] These two cellular outcomes appeared to be mutually exclusive.

[2] = system: Raldh2-/- embryos; conditions: for No. of −/− rescued / No. of −/− unrescued: E10.25; for Teratogenesis: mouse, in vivo, po
Experimental: Briefly, retinoids were dissolved in corn oil and administered orally to timed-pregnant Raldh2_/_mice at 12-h intervals on E7.25, E7.75, and E8.25. Dosages varied from 0.025 to 25 mg/kg. At E10.25, embryos were analyzed morphologically to determine whether Raldh2_/_embryos were rescued or whether wild-type embryos had suffered teratogenesis. Detection of embryonic RA was performed in situ in embryos carrying the RARE-lacZ RA-reporter gene by staining for beta-galactosidase activity for 10 h (45).
A mouse model that lacks retinaldehyde dehydrogenase (Raldh2) due to null mutations was used to test the ability of Flex-Hets to substitute for retinoic acid (RA) and induce birth defects. […] We examined the relative ability of all-trans-RA, 9-cis-RA, receptor-specific synthetic retinoids and retinoic acid receptor independent Flex-Hets to rescue the Raldh2_/_embryonic lethal phenotype.

[3] = system: dorsal skin; experiment: Topical irritancy in Skh hairless mice; format: in vivo
Experimental: Female Skh hairless mice, 6-8 weeks old, were treated topically on the dorsal skin for 4 days over a 2-log concentration dose range with various compounds. Retinoic acid receptor-Hets were evaluated in A, while retinoic acid receptor-independent Flex-Hets were evaluated in B. Daily flaking and abrasion scores were combined to calculate a single cutaneous toxicity score for each mouse. Each treatment group consisted of 4 mice, and group averages were used to plot cutaneous toxicity against doses of the compounds.
Topical irritancy was evaluated according to published procedures (29). Briefly, female Skh hairless mice, 6-8 weeks old, were treated topically on the dorsal skin for 4 days over a 2-log concentration dose range with various compounds. Daily flaking and abrasion scores were combined to calculate a single cutaneous toxicity score for each mouse. Each treatment group consists of 4 mice, and group averages are used to plot cutaneous toxicity against dose of the retinoid compound.

[4] = system: OVCAR-3 xenograft tumors; experiment: OVCAR-3 xenograft tumor growth model; format: in vivo, mouse; conditions: 10 mg/kg/day by gavage, 5 days per week, 4 weeks
Experimental: Groups of 5 mice bearing OVCAR-3 xenografted tumors were gavaged daily with the indicated drugs in sesame oil (▪ closed square) or with sesame oil alone (∘ open circle). Tumor volumes were measured in 3 dimensions with calipers weekly. Each data point represents the average and standard error of the tumor volumes on the indicated treatment day relative to the tumor volume on day zero. Nu/nu mice were injected subcutaneously with one million OVCAR-3 cells and arbitrarily divided into five groups of six mice each. After three weeks of tumor growth, the animals were gavaged with sesame oil, 10 mg/kg/day 4-HPR, or the indicated Het five times per week for four weeks and the tumors were measured once per week. The tumor sizes were averaged and divided by the average size for each group on the day that treatment was initiated (day 0).
The OVCAR-3 cultures were maintained in RPMI media supplemented with 10% fetal bovine serum. All animal experimentation described in this manuscript was conducted in accord with accepted standards of humane animal care. Twenty-five female NU/NU CD-1 female mice (Charles Rivers Laboratories) were housed in a laminar flow room under sterile conditions at 83-85° F. The mice were quarantined for one week prior to the beginning of the study and were allowed access to autoclaved food (Purina 5001 mouse/rat sterilizable diet, St. Louis, Mo.) and water ad libitum. OVCAR-3 cells in log phase growth were harvested by trypsinization, resuspended in RPMI culture medium, and centrifuged at 3,000 rpm for 10 min. The pellets were resuspended in RPMI culture medium at a concentration of 7×10^6 cells/ml before implantation into mice. Animals were injected with 3.5×10^6 cells into the right scapular region with a 24-gauge needle/1 cc tuberculin syringe. Twenty-four hours after tumor implantation, animals were randomized into 5 groups of 5 animals each.
The Hets SHet50, SHetA2 and SHetA4 were synthesized and their receptor specificity determined as previously described (17,19). The 4-HPR compound was a gift from R.W. Johnson Pharmaceutical Research Institute, Raritan, N.J. All retinoids were dissolved in super refined sesame oil (Croda, Inc., Parsippany, N.J.) and stored at −80° C. Since the retinoids are light sensitive, all manipulations involving retinoids were performed under subdued lighting. […] Tumors were measured with calipers weekly, and tumor volumes were calculated using the formula: volume=length×width×height. Tumor growth was determined by the dividing the volume of the tumor at each weekly measurement by the volume on the first day of treatment. Animal weights and clinical signs of overall health status and cutaneous toxicities were recorded weekly.

[5] = system: human polycystic kidney disease cells; experiment: 3-D model of polycystic kidney disease, cyst formation; format: cell-based; conditions: 4 μM, 3 weeks
Experimental: FIG. 21. Effects of Flex-Hets on formation of cysts in cultured polycystic kidney disease cells. A primary culture of polycystic kidney cells were grown inside a mixture of collagen I and matrigel and treated with prostaglandin E2 to induce cyst formation. Parallel cultures were treated with 10 micromolar SHetA3 and SHetA4.
The 3-D model of the PKD was developed as described here. Single-cell suspensions of the PCKD cell lines was re-suspended in a 4° C. solution mixture containing rat tail collagen I (Collaborative Biomedical Products, Bedford, Mass.), matrigel (Becton Dickinson) and MEM. The suspension was poured into Falcon cell culture inserts with transparent membranes containing 0.4 μm pores (Becton Dickinson, Franklin Lakes, N.J.) and placed at 37° C. Treatment of cultures was initiated after 1 day of growth and replenished with medium once in every two days. Drugs (Flex-Hets at 4 μM Conc.) and hormones (PGE2 at 25 ng/ml) were administered into the medium surrounding the insert. Untreated control cultures were grown in the same conditions as that of the treated cultures. Drug treatment was carried out for 3 weeks before their effects on growth and inhibition were evaluated.

[6] = more potent than RA; cited from earlier work
[7] = topical, dorsal skin, 4 days, 2-log dose range

CC1=C(/C=C/C(C)=C\C=C\C(C)=C\C(=O)O)C(C)(C)CCC1 [9-cis-RA]
Induction of apoptosis (TUNEL) in organotypic cultures [1]: Apoptosis was induced | No. of −/− rescued ([2]; Dose 2.5 mg/kg oral): 2 | No. of −/− unrescued ([2]; Dose 2.5 mg/kg oral): 8 | No. of −/− rescued ([2]; Dose 10 mg/kg oral): 6 | No. of −/− unrescued ([2]; Dose 10 mg/kg oral): 1 | Teratogenesis ([2]; 2.5 mg/kg): 0 | Teratogenesis ([2]; 10 mg/kg): 0

CC(C=CC=C(C)c1ccc2c(c1)C(C)(C)CS2)=CC(=O)O [SHet65]
Topical irritancy (cutaneous toxicity score) [3, 7]: induced topical irritancy scores in a dose-responsive manner

CC1=C(/C=C/C(C)=C/C=C/C(C)=C/C(=O)O)C(C)(C)CCC1 [All-trans-RA]
No. of −/− rescued ([2]; Dose 1.0 mg/kg oral): 0 | No. of −/− unrescued ([2]; Dose 1.0 mg/kg oral): 7 | No. of −/− rescued ([2]; Dose 2.5 mg/kg oral): 13 | No. of −/− unrescued ([2]; Dose 2.5 mg/kg oral): 1 | Teratogenesis ([2]; 1 mg/kg): 0 | Teratogenesis ([2]; 2.5 mg/kg): 0

COC(=O)c1ccc(C(=O)Nc2ccc3c(c2)C(C)(C)CC(C)(C)S3)cc1 [SHet50, reference compound]
Growth of xenograft tumors versus sesame oil control [4]: significantly inhibited the growth | Induction of apoptosis (TUNEL) in organotypic cultures [1]: Apoptosis was induced

CC(Cc1ccc(C(=O)O)cc1)c1ccc2c(c1)C(C)(C)CS2 (stereo not drawn) [SHet100]
Rescue of Raldh2−/− embryos (in words) ([2]; 0.5 mg/kg): typical rescue phenotype | No. of −/− rescued ([2]; Dose 0.025 mg/kg oral): 0 | No. of −/− unrescued ([2]; Dose 0.025 mg/kg oral): 2 | No. of −/− rescued ([2]; Dose 0.25 mg/kg oral): 2 | No. of −/− unrescued ([2]; Dose 0.25 mg/kg oral): 0 | No. of −/− rescued ([2]; Dose 0.5 mg/kg oral): 6 | No. of −/− unrescued ([2]; Dose 0.5 mg/kg oral): 1 | Teratogenesis ([2]; 0.025 mg/kg): 0 | Teratogenesis ([2]; 0.25 mg/kg): 0 | Teratogenesis ([2]; 0.5 mg/kg): 0 | Teratogenesis ([2]; 2.5 mg/kg): 11

CCOC(=O)c1ccc(NC(=O)Nc2ccc3c(c2)C(C)(C)CC(C)(C)S3)cc1 [SHetA4]
Growth of xenograft tumors versus sesame oil control [4]: significantly inhibited the growth | Induction of apoptosis (TUNEL) in organotypic cultures [1]: Apoptosis was induced | Topical irritancy (cutaneous toxicity score) ([3]; mouse, in vivo): did not induce topical irritancy | Differentiated phenotype (tubular structures) [5]: induced the formation of several branched tubular structures | Cyst formation ([5]; PGE2 25 ng/ml): completely eliminated cyst formation

C/C(=C\c1ccc(C(=O)O)cc1)c1ccc2c(c1)C(C)(C)CCC2(C)C [TTNPB]
Potency relative to RA [6]: 10 fold

CC1(C)CCOc2ccc(C(=O)Oc3ccc(C=NNC(N)=S)cc3)cc21 [OHet72]
Topical irritancy (cutaneous toxicity score) ([3]; mouse, in vivo): did not induce topical irritancy | Rescue of Raldh2−/− embryos (in words) ([2]; 2.5 mg/kg): no rescue | Rescue of Raldh2−/− embryos (in words) ([2]; 10 or 25 mg/kg): no rescue | No. of −/− rescued ([2]; Dose 2.5 mg/kg oral): 0 | No. of −/− unrescued ([2]; Dose 2.5 mg/kg oral): 4 | No. of −/− rescued ([2]; Dose 10 mg/kg oral): 0 | No. of −/− unrescued ([2]; Dose 10 mg/kg oral): 3 | No. of −/− rescued ([2]; Dose 25 mg/kg oral): 0 | No. of −/− unrescued ([2]; Dose 25 mg/kg oral): 5 | Teratogenesis ([2]; 2.5 mg/kg): 0 | Teratogenesis ([2]; 10 mg/kg): 0 | Teratogenesis ([2]; 25 mg/kg): 0

CCOC(=O)c1ccc(OC(=O)c2ccc3c(c2)C(C)(C)CCN3C(C)C)cc1 [NHet17]
Topical irritancy (cutaneous toxicity score) [3, 7]: induced topical irritancy scores in a dose-responsive manner

CC1=C(/C=C/C(C)=C/C=C/C(C)=C/C(=O)Nc2ccc(O)cc2)C(C)(C)CCC1 [4-HPR, reference compound]
Growth of xenograft tumors versus sesame oil control [4]: significantly inhibited the growth | Induction of apoptosis (TUNEL) in organotypic cultures [1]: Apoptosis was induced
